One assay relates to Phytophthora capsici. The experiment in a line: In vitro fungitoxicity (growth inhibition) against Phytophthora capsici in copper-minus AS and copper-plus AS medium. Type of assay: cell-based. The following applies: CuCl2, 50 uM; no test compound; across experiments. Here is the method:
In vitro fungitoxicity assays against Phytophthora capsici were conducted using the asparagine-sucrose (AS) medium described in Canadian Journal of Microbiology 1961, 7, 15-25, except that copper micronutrient, normally included as CuSO4, was omitted. The medium, termed “copper-minus AS”, was prepared by dissolving 2 g asparagine, 0.43 g KH2PO4, 0.3 g K2HPO4, 0.4 mL of a 0.5 mg/mL thiamine-HCl solution and 15 g sucrose in 1 liter of deionized water and treating the solution with 0.5 g Chelex 100 resin (Bio-Rad Analytical grade, 50-100 mesh, sodium form, cat #142-2822) by stirring at room temperature for 1 h. The pH was adjusted to 6.4, then MgSO4.7H2O (100 μg/mL), FeSO4.7H2O (1 μg/mL), CaCl2 (50 μg/mL), ZnSO4.7H2O (1 μg/mL), NaMoO4.2H2O (0.2 μg/mL) and MnCl2.4H2O (0.2 μg/mL) were added and the entire medium was sterilized by filtration. […]
Phytophthora capsici was grown on petri plates, 9 cm in diameter, containing 15 mL V-8 agar, pH 7.0, containing 200 mL V-8 juice, 4 g CaCO3, and 20 g agar per liter. […] Microtiter plates were inoculated with 100 μL of spore suspension and incubated at 25° C. for 48 h before assessing fungal growth by measuring light scattering in a NepheloStar plate reader. Growth inhibition was determined by comparing growth in the presence of test compound with growth in control wells lacking test compound. […]

The subject of assay [1] is Staphylococcus aureus, Escherichia coli, Aspergillus niger and A. flavus. The following applies: literature report (Proc. Natl. Acad. Sci. India 1991); cited from earlier work.
Assay [2] relates to Leptosphaeria nodorum (LEPTNO). As to the kind of experiment: In vitro fungitoxicity (growth inhibition) against Leptosphaeria nodorum in copper-minus and copper-plus medium. Type of assay: cell-based. The conditions noted are these: 0.05 μg/mL, 72 h at 25° C.; for LEPTNO % Inhn. Plus Copper Observed: copper-plus medium (CuCl2, 10 μM); for inhibition of growth at 0.05 µg/mL: Parastagonospora nodorum, read-out: LEPTNO % Inhn. Minus Copper Observed. As for the experimental part:
In vitro fungitoxicity assays against Leptosphaeria nodorum (LEPTNO) were conducted using the liquid growth medium described by Coursen and Sisler (American Journal of Botany 1960, 47, 541-549) except that copper micronutrient, normally included as CuSO4, was omitted. The medium, termed “copper-minus”, was prepared by dissolving 10 g glucose, 1.5 g K2HPO4, 2 g KH2PO4 and 1 g (NH4)2SO4 in 1 liter of deionized water and treating the solution with 0.5 g Chelex 100 resin (Bio-Rad Analytical grade, 50-100 mesh, sodium form, cat #142-2822) by stirring at room temperature for 1 h. MgSO4.7H2O (0.5 g) was added, and stirring was continued for a further hour. Trace elements (minus CuSO4), and vitamins described by Coursen and Sisler were added from concentrated stock solutions and the entire medium was sterilized by filtration. Medium containing copper was prepared by adding CuCl2.2H2O to the copper-minus medium at 20 μM. Test compounds were dissolved in dimethylsulfoxide (DMSO) then dilutions in copper-minus and copper-plus growth media were prepared as 100 μL aliquots in flat-bottomed 96-well microtiter plates.
LEPTNO was grown on potato dextrose agar in 9 cm diameter petri dishes for 7 days. Sterile deionized water (20 mL) was added to a culture plate and spores suspended by scraping the surface gently with a sterile plastic loop. The resulting suspension was filtered through a double layer of sterile cheesecloth. Filtered spore suspension (5 mL) was centrifuged in a bench centrifuge at 2000 rpm for 2 min. The resulting spore pellet was resuspended in 10 mL sterile deionized water (which had been treated with Chelex 100 resin using 0.5 g resin per liter of water by stirring at room temperature for 1 h), and recentrifuged. The spores were resuspended in copper-minus medium, and the suspension adjusted to 2×10^5 spores per mL. Microtiter plates were inoculated with 100 μL of this spore suspension and the plates incubated at 25° C. for 72 h before assessing fungal growth by measuring light scattering in a NepheloStar plate reader. Growth inhibition was determined by comparing growth in the presence of test compound with growth in control wells lacking test compound.
Results for growth inhibition by test compounds in copper-plus medium (“% Inhn Plus Copper Observed”) were compared with predicted values (“% Inhn Plus Copper Predicted”) that were calculated using the formula set forth by S. R. Colby in Weeds 1967, 15, 20-22 based on results obtained for the same compounds in copper-minus medium (“% Inhn Minus Copper Observed”) and the inhibition attributed to copper chloride alone, as determined by comparing growth in copper-minus and copper-plus media without any test compound across experiments. Results illustrate that hydrazones and copper produce a synergistic fungitoxic effect towards LEPTNO.

For another assay, the system named is Phytophthora infestans. Type of assay: in vivo, Phytophthora infestans on tomato plant. The following applies: 50 ppm hydrazone with 50 μM CuCl2.2H2O; applied 24 h before inoculation; assessed 7 days after inoculation; tomato.

Here are results for five molecules from patent US8461078B2 (priority 2009, dated 2013).

Turning to `O.O.[Cl][Cu][Cl]` [CuCl2, CuCl2.2H2O, reference compound], the “% Inhn attributed to copper chloride alone (Phytophthora capsici)” value in the assay on Phytophthora capsici was 4.5 ± 7.9%.
Consider `O=C(NN=Cc1ccccc1O)c1ccccc1O` [o-hydroxybenzaldehyde-N-salicyloylhydrazone], for which, in assay [1], the Antimicrobial activity entry is on record as “Antimicrobial activity has been reported”.
As to `O=C(N/N=C/c1cc(Cl)ccc1O)c1ccc(C(F)(F)F)cc1` [Compound 33], in assay [2] (copper-minus medium), the “LEPTNO % Inhn. Minus Copper Observed” value amounted to 20.7%.
`O=C(N/N=C/c1cc(Cl)cc(Cl)c1O)c1cc(Cl)ccc1Br` [Compound 36]: in the assay on Phytophthora infestans, the “TLB % Control” value stood at 70.9%. The “LEPTNO % Inhn. Plus Copper Observed” value in assay [2] worked out at 92.5%. Moreover, in assay [2] (copper-minus medium), the inhibition of growth at 0.05 µg/mL was determined as 0%.
Taken in the same sequence, the figures for `O=C(N/N=C/c1cc(Br)cc(Br)c1O)c1cc(Cl)ccc1Br` [Compound 37] were 68.4%, 97.9% and 34.5%.
